{"source": "patent US20090274622A1", "about": "“NECROSIS AVID TRACER AGENT” (K.U. Leuven Research & Development, priority 2003, published 2009)", "key": {"HDL and LDL": {"test_system": "HDL and LDL", "conditions": "reference 37; cited from earlier work"}, "[1]": {"test_system": "occlusive myocardial infarction", "assay": "Ex vivo autoradiography of rabbit heart slices"}, "[2]": {"test_system": "occlusive myocardial infarction", "assay": "In vivo SPECT imaging of rabbit with myocardial infarction", "conditions": "24 and 48 hours post injection"}, "[3]": {"test_system": "reperfused hepatic infarction", "assay": "Ex vivo autoradiography of rat liver slices with TTC and H&E staining"}, "[4]": {"test_system": "occlusive myocardial infarction", "assay": "Tissue radioactivity counting of normal and infarcted rabbit myocardium", "conditions": "gamma counting, 48 h"}, "[5]": {"test_system": "reperfused hepatic infarction", "assay": "Biodistribution of MIH in rats with reperfused hepatic infarction (tissue radioactivity counting)", "conditions": "for Biodistribution, Blood / Biodistribution, Heart / Biodistribution, Kidneys / Biodistribution, Large intestine / Biodistribution, Lungs / Biodistribution, Muscle / Biodistribution, Necrotic liver / Biodistribution, Normal liver / Biodistribution, Small intestine / Biodistribution, Spleen / Biodistribution, Stomach / Biodistribution, Thyroid / Necrotic liver/Blood ratio / Necrotic liver/Intact liver ratio / Necrotic liver/Muscle ratio: i.v., mean ± SD, n = 3"}, "[6]": {"conditions": "quantification of autoradiography image"}}, "data": [{"smiles": "Cc1cc(O)c2c(=O)c3c(O)cc(O)c4c5c(O)c([123I])c(O)c6c(=O)c7c(O)cc(C)c8c1c2c(c34)c(c78)c65", "note": "[MIH, mono-[^123I]iodohypericin]", "values": [{"measurement": "binding to HDL and LDL in vivo", "setting": "HDL and LDL", "result": "bind extensively to HDL and LDL"}, {"measurement": "autoradiography distribution of radioactive uptake in heart slice", "setting": "[1]", "result": "radioactive uptake appears only in the infarcted region"}, {"measurement": "uptake ratio infarcted tissue limited to subendocardial area vs. control tissue", "setting": "[1]; [6]", "result": 16}, {"measurement": "uptake ratio overall infarcted myocardium vs. intact myocardium", "setting": "[1]; [6]", "result": "about 6"}, {"measurement": "whole body SPECT, coronal section", "setting": "[2]", "result": "only one hot spot in the anatomical area of the heart"}, {"measurement": "autoradiography uptake in intact liver", "setting": "[3]; 30 min p.i.", "result": "Pronounced radioactivity uptake"}, {"measurement": "autoradiography uptake in necrotic regions of infarcted liver lobe", "setting": "[3]; 30 min p.i.", "result": "low uptake of MIH"}, {"measurement": "autoradiography uptake in intact liver", "setting": "[3]; 24 h p.i.", "result": "activity from the intact liver has cleared"}, {"measurement": "autoradiography uptake in necrotic regions of infarcted liver tissue", "setting": "[3]; 24 h p.i.", "result": "relatively high uptake of MIH"}, {"measurement": "radiotracer concentration in infarcted tissue vs healthy myocardium", "setting": "[4]", "result": 7, "unit": "fold"}, {"measurement": "uptake in the infarcted region of myocardium", "setting": "[4]", "result": "0.36 % of ID/g"}, {"measurement": "uptake in the normal region of myocardium", "setting": "[4]", "result": "0.05 % of ID/g"}, {"measurement": "concentration ratio necrotic liver vs. blood", "setting": "[5]; 24 hours p.i.", "result": 17}, {"measurement": "concentration ratio necrotic liver vs. muscle", "setting": "[5]; 24 hours p.i.", "result": 57}, {"measurement": "concentration in necrotic liver tissue relative to intact liver tissue", "setting": "[5]; 24 h p.i.", "result": 3.2, "unit": "times"}, {"measurement": "in vivo deiodination (thyroid concentration)", "setting": "[5]; 24 h p.i.", "result": "in vivo deiodination of MIH occurs"}, {"measurement": "Biodistribution, Blood", "setting": "[5]; 30 min p.i.", "result": "1.34 ± 0.38 % of injected dose per gram tissue"}, {"measurement": "Biodistribution, Heart", "setting": "[5]; 30 min p.i.", "result": "0.47 ± 0.13 % of injected dose per gram tissue"}, {"measurement": "Biodistribution, Kidneys", "setting": "[5]; 30 min p.i.", "result": "0.35 ± 0.05 % of injected dose per gram tissue"}, {"measurement": "Biodistribution, Large intestine", "setting": "[5]; 30 min p.i.", "result": "0.03 ± 0.01 % of injected dose per gram tissue"}, {"measurement": "Biodistribution, Lungs", "setting": "[5]; 30 min p.i.", "result": "1.60 ± 0.58 % of injected dose per gram tissue"}, {"measurement": "Biodistribution, Muscle", "setting": "[5]; 30 min p.i.", "result": "0.03 ± 0.01 % of injected dose per gram tissue"}, {"measurement": "Biodistribution, Necrotic liver", "setting": "[5]; 30 min p.i.", "result": "1.91 ± 0.46 % of injected dose per gram tissue"}, {"measurement": "Biodistribution, Normal liver", "setting": "[5]; 30 min p.i.", "result": "3.80 ± 1.39 % of injected dose per gram tissue"}, {"measurement": "Biodistribution, Small intestine", "setting": "[5]; 30 min p.i.", "result": "0.09 ± 0.03 % of injected dose per gram tissue"}, {"measurement": "Biodistribution, Spleen", "setting": "[5]; 30 min p.i.", "result": "2.19 ± 0.18 % of injected dose per gram tissue"}, {"measurement": "Biodistribution, Stomach", "setting": "[5]; 30 min p.i.", "result": "0.03 ± 0.00 % of injected dose per gram tissue"}, {"measurement": "Biodistribution, Thyroid", "setting": "[5]; 30 min p.i.", "result": "0.16 ± 0.02 % of injected dose per gram tissue"}, {"measurement": "Necrotic liver/Blood ratio", "setting": "[5]; 30 min p.i.", "result": "1.44 ± 0.10"}, {"measurement": "Necrotic liver/Intact liver ratio", "setting": "[5]; 30 min p.i.", "result": "0.57 ± 0.28"}, {"measurement": "Necrotic liver/Muscle ratio", "setting": "[5]; 30 min p.i.", "result": "75.80 ± 16.34"}, {"measurement": "Biodistribution, Blood", "setting": "[5]; 24 h p.i.", "result": "0.10 ± 0.01 % of injected dose per gram tissue"}, {"measurement": "Biodistribution, Heart", "setting": "[5]; 24 h p.i.", "result": "0.24 ± 0.08 % of injected dose per gram tissue"}, {"measurement": "Biodistribution, Kidneys", "setting": "[5]; 24 h p.i.", "result": "0.18 ± 0.02 % of injected dose per gram tissue"}, {"measurement": "Biodistribution, Large intestine", "setting": "[5]; 24 h p.i.", "result": "1.47 ± 0.13 % of injected dose per gram tissue"}, {"measurement": "Biodistribution, Lungs", "setting": "[5]; 24 h p.i.", "result": "1.06 ± 0.30 % of injected dose per gram tissue"}, {"measurement": "Biodistribution, Muscle", "setting": "[5]; 24 h p.i.", "result": "0.03 ± 0.00 % of injected dose per gram tissue"}, {"measurement": "Biodistribution, Necrotic liver", "setting": "[5]; 24 h p.i.", "result": "1.71 ± 0.32 % of injected dose per gram tissue"}, {"measurement": "Biodistribution, Normal liver", "setting": "[5]; 24 h p.i.", "result": "0.55 ± 0.15 % of injected dose per gram tissue"}, {"measurement": "Biodistribution, Small intestine", "setting": "[5]; 24 h p.i.", "result": "0.27 ± 0.02 % of injected dose per gram tissue"}, {"measurement": "Biodistribution, Spleen", "setting": "[5]; 24 h p.i.", "result": "0.43 ± 0.07 % of injected dose per gram tissue"}, {"measurement": "Biodistribution, Stomach", "setting": "[5]; 24 h p.i.", "result": "0.37 ± 0.13 % of injected dose per gram tissue"}, {"measurement": "Biodistribution, Thyroid", "setting": "[5]; 24 h p.i.", "result": "9.25 ± 3.25 % of injected dose per gram tissue"}, {"measurement": "Necrotic liver/Blood ratio", "setting": "[5]; 24 h p.i.", "result": "17.40 ± 1.19"}, {"measurement": "Necrotic liver/Intact liver ratio", "setting": "[5]; 24 h p.i.", "result": "3.18 ± 0.49"}, {"measurement": "Necrotic liver/Muscle ratio", "setting": "[5]; 24 h p.i.", "result": "57.09 ± 4.24"}]}, {"smiles": "Cc1cc(O)c2c(=O)c3c(O)cc(O)c4c5c(O)cc(O)c6c(=O)c7c(O)cc(C)c8c1c2c(c34)c(c78)c65", "note": "[hypericine, hypericin, reference compound]", "values": [{"measurement": "binding to HDL and LDL in vivo", "setting": "HDL and LDL", "result": "bind extensively to HDL and LDL"}]}]}
